For 28 molecules, IC50 results are on record in patent US9850225B2, “Compounds useful as immunomodulators” (BRISTOL-MYERS SQUIBB COMPANY, priority 2014, dated 2017).

Each structure is given as a SMILES string. Where a name gives a salt, the structure may show the parent alone.

Chain of PD-1/PD-L1 interaction (PD-1-Ig / PD-L1-His) (Q9NZQ7 other isoform, or with tags, fused parts or gaps): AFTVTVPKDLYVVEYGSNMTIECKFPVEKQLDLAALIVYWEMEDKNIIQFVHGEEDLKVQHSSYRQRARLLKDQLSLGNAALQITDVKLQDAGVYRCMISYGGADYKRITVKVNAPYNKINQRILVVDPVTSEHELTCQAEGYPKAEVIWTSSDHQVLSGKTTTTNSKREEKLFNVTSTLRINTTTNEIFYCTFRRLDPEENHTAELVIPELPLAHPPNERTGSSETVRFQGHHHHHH

The target in this assay is PD-1/PD-L1 interaction (PD-1-Ig / PD-L1-His) (Homo sapiens (Human), UniProt Q9NZQ7). Kind of assay: PD-1/PD-L1 Homogenous Time-Resolved Fluorescence (HTRF) binding assay. To be noted: PD-1/PD-L1 HTRF binding assay; value given as range class; read-out: Range or IC50. The procedure, abridged:
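Human PD-L1-His (10 nM final) was pre-incubated with inhibitor for 15 min, then PD-1-Ig (20 nM final) was added for a further 15 min in dPBS with 0.1% BSA and 0.05% Tween-20. Binding was detected by HTRF using Eu-cryptate anti-Ig (1 nM) and APC anti-His (20 nM).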
A general note: TR-FRET usually uses a lanthanide donor and a delayed reading to cut background.
As to `Cc1c(COc2cc(OCc3cccc(C#N)c3)c(CN[C@@H](CCCCN(C)C)C(=O)O)cc2Cl)cccc1-c1ccc2c(c1)OCCO2` [Example 1173, (S)-2-((5-chloro-2-((3-cyanobenzyl)oxy)-4-((3-(2,3-dihydrobenzo[b][1,4]dioxin-6-yl)-2-methylbenzyl)oxy)benzyl)amino)-6-(dimethylamino)hexanoic acid], the half-inhibitory concentration (IC50) lay in the range of 0.6 to 10 nM.

Consider `CC(=O)NCCNCc1ccc(OCc2cccc(-c3ccccc3)c2C)cc1OCc1ccc(C(F)(F)F)cc1` [Example 1052, N-(2-((4-((2-methyl-[1,1′-biphenyl]-3-yl)methoxy)-2-((4-(trifluoromethyl)benzyl)oxy)benzyl)amino)ethyl)acetamide], for which the IC50 lay within 100 to 20000 nM. As to `Cc1c(COc2cc(OCc3cncc(C#N)c3)c(CN[C@@H](Cc3ccncc3)C(=O)O)cc2Cl)cccc1-c1ccc2c(c1)OCCO2` [Example 2011, (S)-2-((5-chloro-2-((5-cyanopyridin-3-yl)methoxy)-4-((3-(2,3-dihydrobenzo[b][1,4]dioxin-6-yl)-2-methylbenzyl)oxy)benzyl)amino)-3-(pyridin-4-yl)propanoic acid], the half-inhibitory concentration (IC50) was in the range of 10 to 100 nM. Take `Cc1c(COc2cc(OCc3cccc(C#N)c3)c(CN[C@@](C)(CO)C(=O)O)cc2Br)cccc1-c1ccc2c(c1)OCCO2` [Example 1304, (S)-2-((5-bromo-2-((3-cyanobenzyl)oxy)-4-((3-(2,3-dihydrobenzo[b][1,4]dioxin-6-yl)-2-methylbenzyl)oxy)benzyl)amino)-3-hydroxy-2-methylpropanoic acid]: the half-maximal inhibitory concentration (IC50) fell in the range of 0.6 to 10 nM. Regarding `Cc1cc(CN2CCCC[C@H]2C(=O)O)c(OCCCCC#N)cc1OCc1cccc(-c2ccc3c(c2)OCCO3)c1C` [Example 1296, (S)-1-(2-(4-cyanobutoxy)-4-(3-(2,3-dihydrobenzo[b][1,4]dioxin-6-yl)-2-methylbenzyloxy)-5-methylbenzyl)piperidine-2-carboxylic acid], the IC50 was 10 to 100 nM. Next, `COc1cc(OCc2cccc(-c3ccccc3)c2C)cc(OCc2cccc(C#N)c2)c1CN[C@H](C(=O)O)[C@H](C)O` [Example 1136, (2S,3S)-2-((2-((3-cyanobenzyl)oxy)-6-methoxy-4-((2-methyl-[1,1′-biphenyl]-3-yl)methoxy)benzyl)amino)-3-hydroxybutanoic acid]: 0.6 to 10 nM; `Cc1c(COc2cc(OCc3cncc(C#N)c3)c(CN[C@](C)(CO)C(=O)O)cc2Br)cccc1-c1ccc2c(c1)OCCO2` [Example 1320, (R)-2-(5-bromo-2-((5-cyanopyridin-3-yl)methoxy)-4-(3-(2,3-dihydrobenzo[b][1,4]dioxin-6-yl)-2-methylbenzyloxy)benzylamino)-3-hydroxy-2-methylpropanoic acid]: 0.6 to 10 nM; `Cc1cc(CNC[C@@H](O)CC(=O)O)c(OCc2cccc(C#N)c2)cc1OCc1cccc(-c2ccc3c(c2)OCCO3)c1C` [Example 1265, (S)-4-((2-((3-cyanobenzyl)oxy)-4-((3-(2,3-dihydrobenzo[b][1,4]dioxin-6-yl)-2-methylbenzyl)oxy)-5-methylbenzyl)amino)-3-hydroxybutanoic acid]: 0.6 to 10 nM.

Take `Cc1c(COc2cc(OCc3cccc(C#N)c3)c(CN3CCOCC3C(=O)O)cc2Cl)cccc1-c1ccc2c(c1)OCCO2` (stereo not shown) [Example 1213, 4-(5-chloro-2-((3-cyanobenzyl)oxy)-4-((3-(2,3-dihydrobenzo[b][1,4]dioxin-6-yl)-2-methylbenzyl)oxy)benzyl)morpholine-3-carboxylic acid]: the IC50 was in the range of 10 to 100 nM.

For `CC(=O)NCCNCc1ccc(OCc2cccc(-c3ccccc3)c2C)cc1OCc1cccc(Cl)c1F` [Example 1072, N-(2-((2-((3-chloro-2-fluorobenzyl)oxy)-4-((2-methyl-[1,1′-biphenyl]-3-yl)methoxy)benzyl)amino)ethyl)acetamide], the IC50 lay in the range of 100 to 20000 nM. `Cc1c(COc2ccc(CN[C@H](CO)C(=O)O)c(OCCCCC#N)c2)cccc1-c1ccccc1` [Example 1143, (R)-2-((2-(4-cyanobutoxy)-4-((2-methyl-[1,1′-biphenyl]-3-yl)methoxy)benzyl)amino)-3-hydroxypropanoic acid]: the IC50 lay within 0.6 to 10 nM. Regarding `CC(=O)NCCNCc1ccc(OCc2cccc(-c3ccccc3)c2C)cc1OCc1ccc(C(N)=O)cc1` [Example 1039], the IC50 was in the range of 100 to 20000 nM.

As to `Cc1c(COc2cc(OCc3cncc(S(C)(=O)=O)c3)c(CN[C@@](C)(CO)C(=O)O)cc2Cl)cccc1-c1ccc2c(c1)OCCO2` [Example 3012, (S)-2-((5-chloro-4-((3-(2,3-dihydrobenzo[b][1,4]dioxin-6-yl)-2-methylbenzyl)oxy)-2-((5-(methylsulfonyl)pyridin-3-yl)methoxy)benzyl)amino)-3-hydroxy-2-methylpropanoic acid], the IC50 was in the range of 0.6 to 10 nM.

For `CC(=O)NCCNCc1ccc(OCc2cccc(-c3ccccc3)c2C)cc1OCc1ccncc1` [Example 1111, N-(2-((4-((2-methyl-[1,1′-biphenyl]-3-yl)methoxy)-2-(pyridin-4-ylmethoxy)benzyl)amino)ethyl)acetamide], the IC50 was 10 to 100 nM. Take `Cc1c(COc2cc(OCc3cncc(C#N)c3)c(CN3CCCC[C@@H]3C(=O)O)cc2Br)cccc1-c1ccc2c(c1)OCCO2` [Example 1323, (R)-1-(5-bromo-2-((5-cyanopyridin-3-yl)methoxy)-4-(3-(2,3-dihydrobenzo[b][1,4]dioxin-6-yl)-2-methylbenzyloxy)benzyl)piperidine-2-carboxylic acid]: the half-maximal inhibitory concentration (IC50) was in the range of 0.6 to 10 nM. As for `Cc1c(COc2cc(OCc3cccc(C#N)c3)c(CNC[C@@H](O)CC(=O)O)cc2Cl)cccc1-c1ccc2c(c1)OCCO2` [Example 1246, (S)-4-((5-chloro-2-((3-cyanobenzyl)oxy)-4-((3-(2,3-dihydrobenzo[b][1,4]dioxin-6-yl)-2-methylbenzyl)oxy)benzyl)amino)-3-hydroxybutanoic acid], the IC50 was in the range of 0.6 to 10 nM. With `Cc1c(COc2cc(O)c(CN[C@](C)(CO)C(=O)O)cc2Cl)cccc1-c1ccc2c(c1)OCCO2` [Example 1263, (R)-2-((5-chloro-4-((3-(2,3-dihydrobenzo[b][1,4]dioxin-6-yl)-2-methylbenzyl)oxy)-2-hydroxybenzyl)amino)-3-hydroxy-2-methylpropanoic acid, TFA], the IC50 is 100 to 20000 nM.

Take `Cc1c(COc2cc(OCc3cccc(C#N)c3)c(CNC(C)(Cc3c[nH]cn3)C(=O)O)cc2Cl)cccc1-c1ccc2c(c1)OCCO2` (stereo not shown) [Example 1191, 2-((5-chloro-2-((3-cyanobenzyl)oxy)-4-((3-(2,3-dihydrobenzo[b][1,4]dioxin-6-yl)-2-methylbenzyl)oxy)benzyl)amino)-3-(1H-imidazol-4-yl)-2-methylpropanoic acid]: the concentration for half-maximal inhibition (IC50) was in the range of 0.6 to 10 nM. To `Cc1c(COc2ccc(CN[C@](C)(CO)C(=O)O)c(OCc3cccc(C#N)c3)c2)cccc1-c1ccc2c(c1)OCCO2` [Example 1127, (R)-2-((2-((3-cyanobenzyl)oxy)-4-((3-(2,3-dihydrobenzo[b][1,4]dioxin-6-yl)-2-methylbenzyl)oxy)benzyl)amino)-3-hydroxy-2-methylpropanoic acid] belongs 0.6 to 10 nM. Next, `CC(=O)NCCNCc1ccc(OCc2cccc(-c3ccccc3)c2C)cc1OCc1cc(Cl)ccc1F` [Example 1109]: 100 to 20000 nM; `Cc1c(COc2cc(OCc3cccc(C#N)c3)c(CN[C@](C)(CO)C(=O)O)cc2Br)cccc1-c1ccc2c(c1)OCCO2` [Example 1303, (R)-2-((5-bromo-2-((3-cyanobenzyl)oxy)-4-((3-(2,3-dihydrobenzo[b][1,4]dioxin-6-yl)-2-methylbenzyl)oxy)benzyl)amino)-3-hydroxy-2-methylpropanoic acid]: 0.6 to 10 nM; `COc1cccc(COc2cc(OCc3cccc(-c4ccccc4)c3C)ccc2CNCCNC(C)=O)c1` [Example 1086, N-(2-((2-((3-methoxybenzyl)oxy)-4-((2-methyl-[1,1′-biphenyl]-3-yl)methoxy)benzyl)amino)ethyl)acetamide]: 100 to 20000 nM. Consider `CC(=O)NCCNCc1ccc(OCc2cccc(-c3ccccc3)c2C)cc1OCc1cc(F)cc(C(F)(F)F)c1` [Example 1081, N-(2-((2-((3-fluoro-5-(trifluoromethyl)benzyl)oxy)-4-((2-methyl-[1,1′-biphenyl]-3-yl)methoxy)benzyl)amino)ethyl)acetamide], for which the IC50 was in the range of 100 to 20000 nM. Turning to `CC(=O)NCCNCc1ccc(OCc2cccc(-c3ccccc3)c2C)cc1OCc1cc(C(F)(F)F)ccc1F` [Example 1080, N-(2-((2-((2-fluoro-5-(trifluoromethyl)benzyl)oxy)-4-((2-methyl-[1,1′-biphenyl]-3-yl)methoxy)benzyl)amino)ethyl)acetamide], the IC50 lay within 100 to 20000 nM.

For the molecule `Cc1c(COc2ccc(CN[C@@H](CO)CC(=O)O)c(OCc3cccc(C#N)c3)c2)cccc1-c1ccccc1` [Example 1022, (R)-3-((2-((3-cyanobenzyl)oxy)-4-((2-methyl-[1,1′-biphenyl]-3-yl)methoxy)benzyl)amino)-4-hydroxybutanoic acid], the IC50 lay in the range of 0.6 to 10 nM. Turning to `COC(=O)c1ccc(COc2cc(OCc3cccc(-c4ccccc4)c3C)ccc2CNCCNC(C)=O)cc1` [Example 1067, methyl 4-((2-(((2-acetamidoethyl)amino)methyl)-5-((2-methyl-[1,1′-biphenyl]-3-yl)methoxy)phenoxy)methyl)benzoate], the IC50 lay within 100 to 20000 nM.

In the case of `Cc1c(COc2ccc(CN[C@@H](CO)C(=O)O)c(OCc3cccc(C#N)c3)c2)cccc1-c1ccccc1` [Example 1018, (S)-2-((2-((3-cyanobenzyl)oxy)-4-((2-methyl-[1,1′-biphenyl]-3-yl)methoxy)benzyl)amino)-3-hydroxypropanoic acid], the IC50 was 0.6 to 10 nM. Regarding `Cc1c(COc2cc(OCc3cccc(C#N)c3)c(CN[C@H](Cc3cn(Cc4ccccc4)cn3)C(=O)O)cc2Cl)cccc1-c1ccc2c(c1)OCCO2` [Example 1228, (R)-3-(1-benzyl-1H-imidazol-4-yl)-2-((5-chloro-2-((3-cyanobenzyl)oxy)-4-((3-(2,3-dihydrobenzo[b][1,4]dioxin-6-yl)-2-methylbenzyl)oxy)benzyl)amino)propanoic acid], the IC50 was in the range of 10 to 100 nM.

What is called IC50 is the concentration needed to halve the response being measured.
